Laboratory results: patent publication US8802661B2, “C-28 amides of modified C-3 betulinic acid derivatives as HIV maturation inhibitors” (priority 2010, dated 2014)

These compounds were tested on recombinant NL4-3 virus (Renilla luciferase in nef, Gag P373S) (assay: HIV Cell Culture Assay (luciferase reporter virus in MT-2 cells)). Settings: NL43.
Type: cell-based
How it was run: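 Virus from 293T transfection, titered in MT-2 by luciferase. MT-2 (RPMI, 10% HI-FBS) infected ± inhibitor serial dilutions, 4-5 d. Readout: Dual Luciferase premix (lysis:reagent:Stop & Glo 2:1:1), immediate luminescence.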
Work on `C=C(C)[C@@H]1CC[C@]2(C(=O)NCCS(=O)(=O)O)CC[C@]3(C)[C@H](CC[C@@H]4[C@@]5(C)CC=C(c6ccc(C(=O)O)cc6)C(C)(C)[C@@H]5CC[C@]43C)[C@@H]12` [Example 82, sodium 4-((1R,3aS,5aR,5bR,7aR,11aS,11bR,13aR,13bR)-5a,5b,8,8,11a-pentamethyl-1-(prop-1-en-2-yl)-3a-(2-sulfonatoethylcarbamoyl)-2,3,3a,4,5,5a,5b,6,7,7a,8,11,11a,11b,12,13,13a,13b-octadecahydro-1H-cyclopenta[a]chrysen-9-yl)benzoate] yielded an EC50 of 1230 nM.
Compound `C=C(C)[C@@H]1CC[C@]2(C(=O)Nc3ccc(OC)cc3)CC[C@]3(C)[C@H](CC[C@@H]4[C@@]5(C)CC=C(c6ccc(C(=O)O)cc6)C(C)(C)[C@@H]5CC[C@]43C)[C@@H]12` [Example 14, 4-((1R,3aS,5aR,5bR,7aR,11aS,11bR,13aR,13bR)-3a-(4-methoxyphenylcarbamoyl)-5a,5b,8,8,11a-pentamethyl-1-(prop-1-en-2-yl)-2,3,3a,4,5,5a,5b,6,7,7a,8,11,11a,11b,12,13,13a,13b-octadecahydro-1H-cyclopenta[a]chrysen-9-yl)benzoic acid] has an EC50 of 110 nM.

Same assay, conditions: NL43, read-out: EC50 Group
`C=C(C)[C@@H]1CC[C@]2(C(=O)N3CCN(C)CC3)CC[C@]3(C)[C@H](CC[C@@H]4[C@@]5(C)CC=C(c6ccc(C(=O)O)cc6)C(C)(C)[C@@H]5CC[C@]43C)[C@@H]12` [Example 10, 4-((1R,3aS,5aR,5bR,7aR,11aS,11bR,13aR,13bR)-5a,5b,8,8,11a-pentamethyl-3a-(4-methylpiperazine-1-carbonyl)-1-(prop-1-en-2-yl)-2,3,3a,4,5,5a,5b,6,7,7a,8,11,11a,11b,12,13,13a,13b-octadecahydro-1H-cyclopenta[a]chrysen-9-yl)benzoic acid] was tested, and the EC50 was less than 100 nM.
Work on `CN(C)CCNC(=O)[C@]12CCC(C)(C)C[C@H]1C1=CC[C@@H]3[C@@]4(C)CC=C(c5ccc(C(=O)O)cc5)C(C)(C)[C@@H]4CC[C@@]3(C)[C@]1(C)CC2` [Example B1, 4-((4aR,6aR,6bS,8aS,12aS,14aR,14bS)-8a-(2-(dimethylamino)ethylcarbamoyl)-4,4,6a,6b,11,11,14b-heptamethyl-1,4,4a,5,6,6a,6b,7,8,8a,9,10,11,12,12a,14,14a,14b-octadecahydropicen-3-yl)benzoic acid] yielded an EC50 of less than 100 nM.
`C=C(C)[C@@H]1CC[C@]2(C(=O)NCCN(C)C)CC[C@]3(C)[C@H](CC[C@@H]4[C@@]5(C)CC=C(c6cc(F)c(C(=O)O)c(F)c6)C(C)(C)[C@@H]5CC[C@]43C)[C@@H]12` [Example 122, 4-((1R,3aS,5aR,5bR,7aR,11aS,11bR,13aR,13bR)-3a-(2-(dimethylamino)ethylcarbamoyl)-5a,5b,8,8,11a-pentamethyl-1-(prop-1-en-2-yl)-2,3,3a,4,5,5a,5b,6,7,7a,8,11,11a,11b,12,13,13a,13b-octadecahydro-1H-cyclopenta[a]chrysen-9-yl)-2,6-difluorobenzoic acid] gave an EC50 of less than 100 nM.
Work on `C=C(C)[C@@H]1CC[C@]2(C(=O)NCCN(C)CCOC(=O)CCC(=O)O)CC[C@]3(C)[C@H](CC[C@@H]4[C@@]5(C)CC=C(c6ccc(C(=O)O)cc6)C(C)(C)[C@@H]5CC[C@]43C)[C@@H]12` [Example 115, 4-((1R,3aS,5aR,5bR,7aR,11aS,11bR,13aR,13bR)-3a-(2-((2-(3-carboxypropanoyloxy)ethyl)(methyl)amino)ethylcarbamoyl)-5a,5b,8,8,11a-pentamethyl-1-(prop-1-en-2-yl)-2,3,3a,4,5,5a,5b,6,7,7a,8,11,11a,11b,12,13,13a,13b-octadecahydro-1H-cyclopenta[a]chrysen-9-yl)benzoic acid] yielded an EC50 of less than 100 nM.
`C=C(C)[C@@H]1CC[C@]2(C(=O)N(C)CCN(C)C)CC[C@]3(C)[C@H](CC[C@@H]4[C@@]5(C)CC=C(c6ccc(C(=O)O)cc6)C(C)(C)[C@@H]5CC[C@]43C)[C@@H]12` [Example 31, 4-((1R,3aS,5aR,5bR,7aR,11aS,11bR,13aR,13bR)-3a-((2-(dimethylamino)ethyl)(methyl)carbamoyl)-5a,5b,8,8,11a-pentamethyl-1-(prop-1-en-2-yl)-2,3,3a,4,5,5a,5b,6,7,7a,8,11,11a,11b,12,13,13a,13b-octadecahydro-1H-cyclopenta[a]chrysen-9-yl)benzoic acid] showed an EC50 of less than 100 nM.
For `C=C(C)[C@@H]1CC[C@]2(C(=O)NC3(c4ccccn4)CC3)CC[C@]3(C)[C@H](CC[C@@H]4[C@@]5(C)CC=C(c6ccc(C(=O)O)cc6)C(C)(C)[C@@H]5CC[C@]43C)[C@@H]12` [Example 5, 4-((1R,3aS,5aR,5bR,7aR,11aS,11bR,13aR,13bR)-5a,5b,8,8,11a-pentamethyl-1-(prop-1-en-2-yl)-3a-(1-(pyridin-2-yl)cyclopropylcarbamoyl)-2,3,3a,4,5,5a,5b,6,7,7a,8,11,11a,11b,12,13,13a,13b-octadecahydro-1H-cyclopenta[a]chrysen-9-yl)benzoic acid], the EC50 was less than 100 nM.
`C=C(C)[C@@H]1CC[C@]2(C(=O)NCCN3CCS(=O)(=O)CC3)CC[C@]3(C)[C@H](CC[C@@H]4[C@@]5(C)CC=C(c6ccc(C(=O)O)cc6F)C(C)(C)[C@@H]5CC[C@]43C)[C@@H]12` [Example 120, 4-((1R,3aS,5aR,5bR,7aR,11aS,11bR,13aR,13bR)-3a-((2-(1,1-dioxido-4-thiomorpholinyl)ethyl)carbamoyl)-1-isopropenyl-5a,5b,8,8,11a-pentamethyl-2,3,3a,4,5,5a,5b,6,7,7a,8,11,11a,11b,12,13,13a,13b-octadecahydro-1H-cyclopenta[a]chrysen-9-yl)-3-fluorobenzoic acid] gave an EC50 of less than 100 nM.
`C=C(C)[C@@H]1CC[C@]2(C(=O)NCCc3cccnc3)CC[C@]3(C)[C@H](CC[C@@H]4[C@@]5(C)CC=C(c6ccc(C(=O)O)cc6)C(C)(C)[C@@H]5CC[C@]43C)[C@@H]12` [Example 3, 4-((1R,3aS,5aR,5bR,7aR,11aS,11bR,13aR,13bR)-5a,5b,8,8,11a-pentamethyl-1-(prop-1-en-2-yl)-3a-(2-(pyridin-3-yl)ethylcarbamoyl)-2,3,3a,4,5,5a,5b,6,7,7a,8,11,11a,11b,12,13,13a,13b-octadecahydro-1H-cyclopenta[a]chrysen-9-yl)benzoic acid] showed an EC50 of less than 100 nM.
`C=C(C)[C@@H]1CC[C@]2(C(=O)Nc3ncc(C)s3)CC[C@]3(C)[C@H](CC[C@@H]4[C@@]5(C)CC=C(c6ccc(C(=O)O)cc6)C(C)(C)[C@@H]5CC[C@]43C)[C@@H]12` [Example 48, 4-((1R,3aS,5aR,5bR,7aR,11aS,11bR,13aR,13bR)-5a,5b,8,8,11a-pentamethyl-3a-(5-methylthiazol-2-ylcarbamoyl)-1-(prop-1-en-2-yl)-2,3,3a,4,5,5a,5b,6,7,7a,8,11,11a,11b,12,13,13a,13b-octadecahydro-1H-cyclopenta[a]chrysen-9-yl)benzoic acid] showed an EC50 of less than 100 nM.
In the case of `C=C(C)[C@@H]1CC[C@]2(C(=O)NCc3cccnc3)CC[C@]3(C)[C@H](CC[C@@H]4[C@@]5(C)CC=C(c6ccc(C(=O)O)cc6)C(C)(C)[C@@H]5CC[C@]43C)[C@@H]12` [Example 29, 4-((1R,3aS,5aR,5bR,7aR,11aS,11bR,13aR,13bR)-5a,5b,8,8,11a-pentamethyl-1-(prop-1-en-2-yl)-3a-(pyridin-3-ylmethylcarbamoyl)-2,3,3a,4,5,5a,5b,6,7,7a,8,11,11a,11b,12,13,13a,13b-octadecahydro-1H-cyclopenta[a]chrysen-9-yl)benzoic acid], the EC50 is reported as less than 100 nM.
`C=C(C)[C@@H]1CC[C@]2(C(=O)NCCC(=O)O)CC[C@]3(C)[C@H](CC[C@@H]4[C@@]5(C)CC=C(c6ccc(C(=O)O)cc6)C(C)(C)[C@@H]5CC[C@]43C)[C@@H]12` [Example 25, 4-((1R,3aS,5aR,5bR,7aR,11aS,11bR,13aR,13bR)-3a-(2-carboxyethylcarbamoyl)-5a,5b,8,8,11a-pentamethyl-1-(prop-1-en-2-yl)-2,3,3a,4,5,5a,5b,6,7,7a,8,11,11a,11b,12,13,13a,13b-octadecahydro-1H-cyclopenta[a]chrysen-9-yl)benzoic acid] was tested, and the EC50 was less than 100 nM.
`C=C(C)[C@@H]1CC[C@]2(C(=O)NCCN(CC(=O)O)C(C)C)CC[C@]3(C)[C@H](CC[C@@H]4[C@@]5(C)CC=C(c6ccc(C(=O)O)cc6)C(C)(C)[C@@H]5CC[C@]43C)[C@@H]12` [Example 95, 4-((1R,3aS,5aR,5bR,7aR,11aS,11bR,13aR,13bR)-3a-(2-((carboxymethyl)(isopropyl)amino)ethylcarbamoyl)-5a,5b,8,8,11a-pentamethyl-1-(prop-1-en-2-yl)-2,3,3a,4,5,5a,5b,6,7,7a,8,11,11a,11b,12,13,13a,13b-octadecahydro-1H-cyclopenta[a]chrysen-9-yl)benzoic acid] gave an EC50 of less than 100 nM.
For `C=C(C)[C@@H]1CC[C@]2(C(=O)NCCN3CCNC(=O)C3)CC[C@]3(C)[C@H](CC[C@@H]4[C@@]5(C)CC=C(c6ccc(C(=O)O)cc6)C(C)(C)[C@@H]5CC[C@]43C)[C@@H]12` [Example 108, 4-((1R,3aS,5aR,5bR,7aR,11aS,11bR,13aR,13bR)-5a,5b,8,8,11a-pentamethyl-3a-(2-(3-oxopiperazin-1-yl)ethylcarbamoyl)-1-(prop-1-en-2-yl)-2,3,3a,4,5,5a,5b,6,7,7a,8,11,11a,11b,12,13,13a,13b-octadecahydro-1H-cyclopenta[a]chrysen-9-yl)benzoic acid], the EC50 was less than 100 nM.
`C=C(C)[C@@H]1CC[C@]2(C(=O)NCCN3CCCC3=O)CC[C@]3(C)[C@H](CC[C@@H]4[C@@]5(C)CC=C(c6ccc(C(=O)O)cc6)C(C)(C)[C@@H]5CC[C@]43C)[C@@H]12` [Example 46, 4-((1R,3aS,5aR,5bR,7aR,11aS,11bR,13aR,13bR)-5a,5b,8,8,11a-pentamethyl-3a-(2-(2-oxopyrrolidin-1-yl)ethylcarbamoyl)-1-(prop-1-en-2-yl)-2,3,3a,4,5,5a,5b,6,7,7a,8,11,11a,11b,12,13,13a,13b-octadecahydro-1H-cyclopenta[a]chrysen-9-yl)benzoic acid] showed an EC50 of less than 100 nM.
